Experimental data reported in USRE43932E1, “Crystal modification of a N-phenyl-2-pyrimidineamine derivative, processes for its manufacture and its use” (Novartis AG, priority 1997, dated 2013).

Tests used:
[1] = system: angiogenic effect of growth factors (VEGF, PDGF, bFGF); experiment: Subcutaneous agar chamber angiogenesis model with growth factor; type: in vivo, mice (C57 BL/6); conditions: mice, oral dose of 50 mg/kg once daily, chambers removed after 5 days
Procedure: Dosing is started one day before implantation of the chambers. The chambers are removed after 5 days. The angiogenic efficacy is quantified by measuring both the vascularised tissue which has grown around the implant and the blood content of this tissue (external blood). The blood is determined by measuring the haemoglobin.

PDGF receptor = experiment: PDGF-stimulated receptor tyrosine kinase activity in PDGF receptor immune complexes of BALB/c 3T3 cells; type: biochemical
Procedure: The inhibition of PDGF-stimulated receptor tyrosine kinase activity in vitro is measured in PDGF receptor immune complexes of BALB/c 3T3 cells, as described by E. Andrejauskas-Buchdunger and U. Regenass in Cancer Research 52, 5353-5358 (1992).

[2] = Flow properties of the crystals; type: physicochemical; conditions: for solid dosage forms
[3] = system: tracheal allogenic transplants; conditions: 50 mg/kg combined with CsA 1 mg/kg s.c.
Excerpt: In contrast to patients without OB, those with OB often show an elevated PDGF concentration in bronchoalveolar lavage fluids.

denuded thoracic aorta = experiment: Rat thoracic aorta denudation, cell counts; type: in vivo, male Wistar rats; conditions: rats, 50 mg/kg i.p. per day
[4] = system: denuded left common carotid artery; experiment: Rat carotid artery denudation, cell counts and BrdU labelling; type: in vivo, male Wistar rats

For `Cc1ccc(NC(=O)c2ccc(CN3CCN(C)CC3)cc2)cc1Nc1nccc(-c2cccnc2)n1` [compound of formula I], the “Angiogenic effect of growth factors (VEGF, PDFG, bFGF)” value [1] was “inhibits” and the “PDGF-dependent acellular receptor phosphorylation” value (PDGF receptor) was “inhibits”.
In the case of `CS(=O)(=O)O.Cc1ccc(NC(=O)c2ccc(CN3CCN(C)CC3)cc2)cc1Nc1nccc(-c2cccnc2)n1` [α-crystal form], the Flow properties [2] was “unfavourable”.
With `CS(=O)(=O)O.Cc1ccc(NC(=O)c2ccc(CN3CCN(C)CC3)cc2)cc1Nc1nccc(-c2cccnc2)n1` [β-crystal form] the “Effect of combination with CsA” value [3] was “synergism”, the “Number of smooth-muscle cells in aorta-denuded animals” value (denuded thoracic aorta) was “Decreases” and the Flow properties [2] was “substantially more favourable than those of the α-crystal form”. For the same compound, the “Absolute number of BrdU-labelled cells in the intima, media, and adventitia” value ([4]; first two labelling periods (0-72 and 72-96 h)) was “slight decrease”, the “Number of BrdU-labelled cells in all compartments” value ([4]; labelling after 93-96 h) was “decrease” and the “Cell count for smooth-muscle cells in the carotid” value ([4]; rats, 50 mg/kg i.p. per day, 4 days after denudation) was “significant decrease”. The “Cell count in the adventitia and the media” value ([4]; rats, 50 mg/kg i.p. per day, carotid denudation) was “significant reduction”.
